Like-named read-outs stand apart in the source and are kept apart here.
Experiments:
cGAS = cGAS (Homo sapiens (Human), UniProt Q8N884); test: Human cGAS enzyme assay (hcGAS IC50, in vitro), cGAMP formation by RapidFire MS; assay type: biochemical; details: biochemical (in vitro) cGAS inhibition;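 also: enzyme activated by 45 bp dsDNA with GTP and ATP (30 µM each), 60 min compound pre-incubation then 90 min reaction, cGAMP relative to cyclic-di-GMP internal standard, 8-point dilutions up to 10 µM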
Chain of cGAS (Q8N884 whole entry): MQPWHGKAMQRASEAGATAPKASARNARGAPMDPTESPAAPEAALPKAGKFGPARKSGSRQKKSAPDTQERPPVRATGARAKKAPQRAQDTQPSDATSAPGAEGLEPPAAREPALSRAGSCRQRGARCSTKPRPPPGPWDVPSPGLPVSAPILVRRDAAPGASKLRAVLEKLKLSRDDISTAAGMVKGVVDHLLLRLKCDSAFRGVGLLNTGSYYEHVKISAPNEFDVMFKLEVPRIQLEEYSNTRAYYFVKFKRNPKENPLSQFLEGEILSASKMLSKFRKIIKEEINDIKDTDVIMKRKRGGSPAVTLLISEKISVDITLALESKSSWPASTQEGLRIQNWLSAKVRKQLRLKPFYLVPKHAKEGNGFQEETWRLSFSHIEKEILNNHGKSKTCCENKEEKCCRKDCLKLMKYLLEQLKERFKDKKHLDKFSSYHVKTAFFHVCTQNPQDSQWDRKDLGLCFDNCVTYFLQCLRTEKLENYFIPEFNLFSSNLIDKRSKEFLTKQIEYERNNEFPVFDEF

[1] = system: cellular cGAS activity in baculovirus-stimulated THP1-Dual cells (IRF dependent Lucia luciferase reporter); test: Human cGAS cell assay: inhibition of IFN induction in virus-stimulated THP1 cells (THP1(vir) IC50); assay type: cell-based; details: Homo sapiens, THP1-Dual
From the text: (§1) 6.2 Method: Human cGAS Cell Assay and cGAMP Stimulated Counter Cell Assay (THP1(vir) IC50 and THP1(cGAMP) IC50)
(§2) THP1-Dual™ cells (InvivoGen #thpd-nfis) expressing IRF dependent Lucia luciferase reporter were used as basis for both assays. For the detection of cellular cGAS activity cells were stimulated by a baculovirus (pFastbac-1, Invitrogen, no coding insert) infection that delivers the cGAS enzyme stimulating double-stranded DNA (measurement of THP1(vir) IC50).
(§3) For the counter assay, cells were stimulated by cGAMP (SigmaAldrich #SML1232) to activate the identical pathway independent and directly downstream of cGAS (measurement of THP1(cGAMP) IC50). Pathway activity was monitored by measuring the Lucia luciferase activity induced by either DNA stimulated cGAS enzyme activity (measurement of THP1(vir) IC50) or by cGAMP directly (measurement of THP1(cGAMP) IC50, counter assay).
(§4) Compounds were delivered in 10 mM DMSO solution, serially diluted and transferred to the 384 well assay plate (Greiner #781201) using an Echo acoustic dispenser. Typically, 8 concentrations were used with the highest concentration at 10 μM in the final assay volume followed by ˜1:5 dilution steps. DMSO concentration was set to 1% in the final assay volume. The 384 well assay plate contained 21 test compounds (column 1-22), and DMSO in column 23 and 24.
(§5) Cells, cultivated according to manufacturer conditions, were harvested by centrifugation at 300 g/10 min and were then resuspended and diluted to 1.66E5 cells/ml in fresh cell culture medium (RPMI 1640 (Gibco #A10491-01), 10% FCS (Gibco #10500), 1× GlutaMax (Gibco #35050-061), 1× Pen/Strep solution (Gibco #15140-122), 100 μg/ml Normocin (InvivoGen #ant-nr), 100 μg/ml Zeocin (InvivoGen #ant-zn), 10 μg/ml Blasticidin S (Life Technologies #A11139-03)). The baculovirus solution was then added 1:200 (have varied according to virus batch) to the cells (measurement of THP1(vir) IC50).
(§6) 30 μL of the cell/virus-mix were added to each well of the compound plate from column 1-23 via MultiDrop Combi dispenser (5000 cells/well). In column 24, 30 μl/5000 cells/well without virus were added as a low control.
(§7) The plates were then incubated for 18 h at 37° C. in a humidified incubator.
(§8) Following that, 15 μl of QuantiLuc detection reagent (InvivoGen #rep-qlcg5) were added to each well using a MultiDrop Combi. Measurement was done immediately after the addition using an EnVision reader (US-luminescence read-mode).
(§9) For data evaluation and calculation, the measurement of the low control was set as 0% control and the measurement of the high control was set as 100% control. The IC50 values were calculated using the standard 4 parameter logistic regression formula. Calculation: [y=(a−d)/(1+(x/c)^b)+d], a=low value, d=high value; x=conc M; c=IC50 M; b=slope

[2] = system: cGAMP-stimulated THP1-Dual cells (pathway directly downstream of cGAS); test: cGAMP stimulated counter cell assay: inhibition of IFN induction in cGAMP-stimulated THP1 cells (THP1(cGAMP) IC50); assay type: cell-based, human; details: for IC50: read-out: THP1(cGAMP) IC50 (converted); for Ratio THP1(cGAMP) IC50 / THP1(vir) IC50: selectivity for cGAS inhibition
From the text: as §1, §2, §3, §4, §5, §6, §7, §8, §9

[3] = system: cellular cGAS activity in dsDNA-stimulated human whole blood; test: Human whole blood assay (hWB IC50): IFNα2α production after dsDNA transfection; assay type: cell-based; details: inhibition of IFN induction in dsDNA-stimulated human whole blood
Description: 6.3 Method: Human Whole Blood Assay (Human WB IC50)
For the detection of cellular cGAS activity human whole blood was stimulated by transfection with double stranded DNA. Pathway activity was monitored by measuring the IFNα2α production.
Compounds were delivered as 10 mM DMSO solution and serially diluted and transferred to the 96-well cell culture plate (Corning #3595), prefilled with 20 μl OptiMEM (Gibco, #11058-021) in each well, using an Echo acoustic dispenser. Typically, 8 concentrations were used with the highest concentration at 10 µM in the final assay volume followed by ˜1:5 dilution steps. DMSO concentration was set to 0.1% in the final assay volume. The 96-well assay plate contained 10 test compounds, and DMSO in control wells.
Collection of human whole blood from 3 or more healthy donors (male or female, no medication for 7 days except contraceptive and thyroxine) as Na-Citrate blood (e.g. 3.8% in Monovettes from Sarstedt) was conducted in parallel. Whole blood was kept at room temperature for a maximum of 3 hours after collection until use in the assay.
160 μl of the whole blood samples was transferred to each well of the 96-well assay plates filled with compound/OptiMEM. All assay plates were prepared as duplicates with blood from different donors. Blood plates were kept at room temperature for 60 minutes and continuous shaking with 450 rpm, covered with the lid, but not sealed.
20 μl OptiMEM and 9.6:1 Fugene was added to all low control wells.
After covering assay plates with aera seals and the lid, blood plates were kept at room temperature for 30 minutes and continuous shaking with 450 rpm, followed by an overnight incubation of 22 h at 37° C. in the incubator, without shaking.
For the detection of IFNα-2α in human plasma, the biotinylated capture antibody (Antibody set IFNA2, Meso Scale Diagnostics #B21VH-3, including coating and capture antibody) was diluted 1:17.5 in Diluent 100 (Meso Scale Diagnostics #R^50AA-4), according to the manufacturer's directions. U-Plex MSD GOLD 96-well Small Spot Strepavidin SECTOR Plates (Meso Scale Diagnostics #L45SA-5) were coated with 25 μl diluted capture antibody. Coated plates were incubated for 60 min at room temperature under continuous shaking at 700 rpm. MSD IFNα-2α plates were washed three times with 150 μl wash buffer (1x HBSS, 0.05% Tween).
After blocking the plates with 100 μl block solution/well (1x HBSS with 0.2% Tween, 2% BSA) for 60 min at room temperature and continuous shaking at 700 rpm, plates were emptied as dry as possible by dumping just before continuing with the human plasma.
Whole Blood assay plates were centrifuged at 1600 rpm for 10 minutes. 25 μl of supernatant was transferred with a pipetting robot from each whole blood plate to the corresponding IFNα-2α plate. Plates were sealed with microplate seals and kept at room temperature again under continuous shaking at 700 rpm for two hours.
Next MSD IFNα-2α plates were washed three times with 150 μl wash buffer (1×HBSS, 0.05% Tween), before adding 25 μl MSD SULFO-TAG IFNα-2α Antibody solution (1:100 diluted in Diluent 3 (Meso Scale Diagnostics #R50AP-2) to each well of the plates.
Afterwards plates were sealed with microplate seals and kept at room temperature again under continuous shaking at 700 rpm for two hours. Finally, MSD IFNα-2α plates were washed three times with 150 μl wash buffer (1×HBSS, 0.05% Tween). 150 μl 2× Read buffer was added to each well and plates were immediately measured with the MSD Sector S600 Reader using the vendor barcode.
For data evaluation and calculation, % control calculation of each well was based on the mean of high (DNA stimulated control) and mean of low (unstimulated control) controls by using the following formula:
[counts(sample)−counts(low))/(counts(high)−counts(low))]*100
The IC50 values were calculated using the standard 4 parameter logistic regression formula. Calculation: [y=(a−d)/(1+(x/c)^b)+d], a=low value, d=high value; x=conc M; c=IC50 M; b=slope

[4] = inhibition of IFN induction in virus-stimulated THP1 cells, read-out: THP1(vir) IC50
[5] = Homo sapiens, THP1-Dual, inhibition of IFN induction in cGAMP-stimulated THP1 cells

Row | SMILES | IC50 (cGAS) [µM] | IC50 [1, 4] [µM] | IC50 [2, 5] [µM] | Ratio THP1(cGAMP) IC50 / THP1(vir) IC50 [2] | IC50 [3] [µM] | IC50 ([1]; read-out: THP1(vir) IC50, inhibition of IFN induction in virus-stimulated THP1 cells) [µM] | IC50 ([1]; read-out: THP1(vir) IC50, virus-stimulated THP1 cells, IFN induction) [µM] | IC50 ([2]; cGAMP-stimulated THP1 cells, counter assay) [µM]
1 | C[C@@H]1N(c2cc(-c3ccnc(C#N)c3)cnc2O[C@H]2C[C@@H](C(=O)O)N(c3nc(C(F)F)nc4c3oc3ccccc34)C2)CCOC12COC2 [Example 3.21] | 0.004 | 0.024 | 11.7 | 483 | 0.055 |  |  | 
2 | CNCc1cccc(-c2cnc(O[C@H]3C[C@@H](C(=O)O)N(c4nc(C(F)(F)F)nc5c4oc4ccccc45)C3)c(N3CCOC4(COC4)[C@@H]3C)c2)c1 [Example 3.22] | 0.016 | 0.177 | 8.91 | 50 | 0.07 |  |  | 
3 | C#Cc1cnc(O[C@H]2C[C@@H](C(=O)O)N(c3nc(C(F)(F)F)nc4c3oc3ccccc34)C2)c(N2CCOC[C@@H]2C)c1 [Example 1.30] | 0.003 | 0.159 | 22.1 | 139 | 0.08 |  |  | 
4 | C[C@H]1COCCN1c1cc(-c2ccnc(C(F)F)c2)cnc1O[C@H]1C[C@@H](C(=O)O)N(c2nc(C(F)(F)F)nc3c2oc2ccccc23)C1 [Example 3.04] | 0.012 | 0.757 | 7.78 | 10 | 2.42 |  |  | 
5 | CC1(C#N)CN(c2cc(Cl)cnc2O[C@H]2C[C@@H](C(=O)O)N(c3nc(C(F)F)nc4c3oc3ccccc34)C2)CCO1 (stereo partly drawn) [Example 1.02] | 0.004 | 0.697 | 21.9 | 31 | 3.44 |  |  | 
6 | CSc1cnc(O[C@H]2C[C@@H](C(=O)O)N(c3nc(C(F)F)nc4c3oc3ccccc34)C2)c(N2CCOC3(COC3)[C@@H]2C)c1 [Example 9.01, (2S,4S)-1-[4-(difluoromethyl)-8-oxa-3,5-diazatricyclo[7.4.0.0^2,7]trideca-1(9),2(7),3,5,10,12-hexaen-6-yl]-4-({3-[(9S)-9-methyl-2,5-dioxa-8-azaspiro[3.5]nonan-8-yl]-5-(methylsulfanyl)pyridin-2-yl}oxy)pyrrolidine-2-carboxylic acid] | 0.006 | 0.016 | 19.8 | 1254 | 0.038 |  |  | 
7 | CC(=O)Nc1ccc(-c2cnc(O[C@H]3C[C@@H](C(=O)O)N(c4nc(C(F)(F)F)nc5c4oc4ccccc45)C3)c(N3CCOC4(COC4)[C@@H]3C)c2)cn1 [Example 3.10] | 0.008 | 0.005 | 7.91 | 1713 | 0.01 |  |  | 
8 | C[C@@H]1N(c2cc(-c3cnn(C)n3)cnc2O[C@H]2C[C@@H](C(=O)O)N(c3nc(C(F)(F)F)nc4c3oc3ccccc34)C2)CCOC12COC2 [Example 7.05] | 0.009 | 0.01 | 13.2 | 1292 | 0.035 |  |  | 
9 | C[C@@H]1N(c2cc(Cl)cnc2O[C@H]2C[C@@H](C(=O)O)N(c3nc(C(F)F)nc4c3oc3ccccc34)C2)CCOC12COC2 [Example 1.09] | 0.002 | 0.019 | 22.1 | 1169 | 0.019 |  |  | 
10 | CNc1cccc(-c2cnc(O[C@H]3C[C@@H](C(=O)O)N(c4nc(C(F)(F)F)nc5c4oc4ccccc45)C3)c(N3CCOC4(COC4)[C@@H]3C)c2)c1 [Example 3.12] | 0.009 | 0.006 | 11.1 | 1930 | 0.019 |  |  | 
11 | C[C@@H]1N(c2cccnc2O[C@H]2C[C@@H](C(=O)O)N(c3nc(C(F)F)nc4c3oc3ccccc34)C2)CCOC12COC2 [Example 4.04, (2S,4S)-4-({3-[(9S)-9-methyl-2,5-dioxa-8-azaspiro[3.5]nonan-8-y]-pyridin-2-yl}-oxy)1-[4-(difluoro-methyl)-8-oxa-3,5-diazatricyclo[7.4.0.0^2.7]trideca-1(13),2,4,6,9,11-hexaen-6-yl]pyrrolidine-2-carboxylic acid] | 0.002 |  | > 16.6 | >43 | 0.077 | 0.386 | 0.386 | > 16.6
